The record followed here is patent US12084430B2, “Tricyclic urea compounds as JAK2 V617F inhibitors” (Incyte Corporation, priority 2022, dated 2024).

One series deals with FLT3. Briefly: FLT3 enzymatic assay. It is filed as biochemical. The method, then: Example C. FLT3 Enzymatic Assay
(§1) The kinase assays were carried out at room temperature in assay buffer (HEPES 50 mM, pH 7.0, NaN3 0.02%, BSA 0.01%, Orthovanadate 0.1 mM, DTT 1 mM, MgCl2 10 mM) in a final volume of 10 μL. Testing compounds were prepared by serial dilution in DMSO and transferred to the plate wells by ECHO liquid handler (Labcyte) with 0.5% DMSO in the final assay. […]. Reactions were initiated by the addition of 5 μL ATP in assay buffer. The final 10 μL kinase reaction consists of 0.011 nM FLT3, 1 mM ATP, 500 nM TK Substrate-biotin and SEB reagent 62.5 nM in assay buffer. […] The plates were then sealed and centrifuged at 1800 rpm for 2 minutes. After 60 minutes incubation at room temperature, the product activity was determined by measuring the fluorescence at 620 nm and 665 nm on Pherastar microplate reader (BMG Labtech). A ratio is calculated (665/620 nm) for each well. Wells with DMSO only were served as the positive controls and wells containing no ATP were used as negative controls. IC50 determination was performed by fitting the curve of percent control activity versus the log of the compound concentration using the GraphPad Prism 7.0 software.

Series [1] has as its system STAT5 (Tyr694) phosphorylation in SET-2 cells. The series can be described thus: STAT5 (Tyr694) phosphorylation cell based assay. Particulars: Homo sapiens, pSTAT5, 2 hours, read-out: SET2 IC50. As for the experimental part:
Example E. STAT5 (Tyr694) Phosphorylation Cell Based Assay
SET-2 cells was purchased from DSMZ (Germany). RPMI1640 medium, Fetal Bovine Serum and 384-white sold flat-bottom small volume plate were purchased from Thermo Fisher Scientific (Waltham, MA). Phospho-STAT5 (Tyr694) HTRF kit was purchased from Perkin Elmer (Waltham, MA).
SET-2 cells were cultured in RPMI media with 20% FBS at 37° C. in humidified incubator supplied with 5% CO2. On the day of assay, the cells were centrifuged to remove the culture media and resuspended with prewarmed RPMI with 10% FBS. Testing compounds were prepared by serial dilution in DMSO and 50 nL/well test compounds were transferred to the 384 white low volume cell culture plate (Greiner Bio-one) by ECHO liquid handler (Labcyte). The cells were then dispensed with Multidrop (Thermo Fisher, Waltham, MA) at 10 μL/well (7×10^6 cells/mL) with 0.5% DMSO in the final assay. After the treated cells were incubated for 2 hours at 37° C./5% CO2 incubator, 4 μL/well supplemented lysis buffer (100× blocking buffer diluted 25 fold in 4× lysis buffer, Perkin Elmer) were added and incubated at room temperature for 90 min on orbital shaker at 600 rpm. Phospho-STAT5 Cryptate antibody and Phospho-STAT5 d2 antibody (1:1 vol/vol) were premixed and diluted 20 fold with in the detection buffer (Perkin Elmer). 4 μL of the premixed antibody solution were added to each well followed with 24 hours incubation at room temperature on orbital shaker at 600 rpm. The product activity was determined by measuring the fluorescence at 620 nm and 665 nm on Pherastar microplate reader (BMG Labtech). A ratio is calculated (665/620) for each well. Wells with DMSO only served as the positive controls and wells containing high concentration of control compound were used as negative controls. IC50 determination was performed by fitting the curve of percent control activity versus the log of the compound concentration using the GraphPad Prism 7.0 software.

The subject of the next series is KIT. Briefly: KIT enzymatic assay. Format: biochemical. The method, then: Example D. KIT Enzymatic Assay
as §1, with “0.12” for “0.011”, “KIT,” for “FLT3,”

Series [2] is described as follows: In vitro intrinsic clearance. It is filed as in vitro ADME. Particulars: human liver microsomes, 1 μM. As for the experimental part: Example G. In Vitro Intrinsic Clearance Protocol
For in vitro metabolic stability experiments, test compounds were incubated with human liver microsomes at 37° C. The incubation mixture contained test compounds (1 μM), NADPH (2 mM), and human liver microsomes (0.5 mg protein/mL) in 100 mM phosphate buffer (pH 7.4). The mixture was pre-incubated for 2 min at 37° C. before the addition of NADPH. Reactions were commenced upon the addition of NADPH and quenched with ice-cold methanol at 0, 10, 20, and 30 min. Terminated incubation mixtures were analyzed using LC-MS/MS system. The analytical system consisted of a Shimadzu LC-30AD binary pump system and SIL-30AC autosampler (Shimadzu Scientific Instruments, Columbia, MD) coupled with a Sciex Triple Quad 6500+ mass spectrometer from Applied Biosystems (Foster City, CA). […] Mobile phase A consisted of 0.1% formic acid in water, and mobile phase B consisted of 0.1% formic acid in acetonitrile. The total LC-MS/MS runtime was 2.75 minutes with a flow rate of 0.75 mL/min. Peak area integrations and peak area ratio calculations were performed using Analyst software (version 1.6.3) from Applied Biosystems.
The in vitro intrinsic clearance, CLint, in vitro, was calculated from the t1/2 of test compound disappearance as CLint, in vitro=(0.693/t1/2)×(1/Cprotein), where Cprotein is the protein concentration during the incubation, and t1/2 was determined by the slope (k) of the log-linear regression analysis of the concentration versus time profiles; thus, t1/2=ln 2/k. The CLint, in vitro values were scaled to the in vivo values for human by using physiologically based scaling factors, hepatic microsomal protein concentrations (45 mg protein/g liver), and liver weights (21 g/kg body weight). The equation CLint=CLint, in vitro×(mg protein/g liver weight)×(g liver weight/kg body weight) was used. The in vivo hepatic clearance (CLH) was then calculated by using CLint and hepatic blood flow, Q (20 mL·min^−1·kg^−1 in humans) in the well-stirred liver model disregarding all binding from CLH=(Q×CLint)/(Q+CLint). The hepatic extraction ratio was calculated as CLH divided by Q.
(Liver microsomes are vesicles of endoplasmic reticulum, rich in cytochrome P450 enzymes.)

Series [3] deals with TRKA (Homo sapiens, UniProt P04629). The series can be described thus: TRKA enzymatic assay. It is filed as biochemical. Particulars: 1 mM ATP. As for the experimental part: (§2) Example I. TRKA Enzymatic Assay
(§3) The kinase assays were carried out at 24° C. temperature in assay buffer (HEPES 50 mM, pH 7.0, NaN3 0.02%, BSA 0.01%, Orthovanadate 0.1 mM, DTT 1 mM, MgCl2 10 mM) in a final volume of 10 μL. Testing compounds were prepared by serial dilution in DMSO and transferred to the plate wells by ECHO liquid handler (Labcyte) with 0.5% DMSO in the final assay. […]. Reactions were initiated by the addition of 5 μL ATP in assay buffer. The final 10 μL kinase reaction consists of 0.58 nM TRKA, 1 mM ATP, 500 nM TK Substrate-biotin and SEB reagent 62.5 nM in assay buffer. […] After 60 minutes incubation at room temperature, the product activity was determined by measuring the fluorescence at 620 nm and 665 nm on Pherastar microplate reader (BMG Labtech). A ratio is calculated (665/620 nm) for each well. Wells with DMSO only were served as the positive controls and wells containing no ATP were used as negative controls. IC50 determination was performed by fitting the curve of percent control activity versus the log of the compound concentration using the Gene data.

Series [4] concerns TRKA. Briefly: TRKA enzymatic assay. It is filed as biochemical. The method, then: as §2, §3

TRKA (Homo sapiens, UniProt P04629), sequence (P04629 33-796, species assumed): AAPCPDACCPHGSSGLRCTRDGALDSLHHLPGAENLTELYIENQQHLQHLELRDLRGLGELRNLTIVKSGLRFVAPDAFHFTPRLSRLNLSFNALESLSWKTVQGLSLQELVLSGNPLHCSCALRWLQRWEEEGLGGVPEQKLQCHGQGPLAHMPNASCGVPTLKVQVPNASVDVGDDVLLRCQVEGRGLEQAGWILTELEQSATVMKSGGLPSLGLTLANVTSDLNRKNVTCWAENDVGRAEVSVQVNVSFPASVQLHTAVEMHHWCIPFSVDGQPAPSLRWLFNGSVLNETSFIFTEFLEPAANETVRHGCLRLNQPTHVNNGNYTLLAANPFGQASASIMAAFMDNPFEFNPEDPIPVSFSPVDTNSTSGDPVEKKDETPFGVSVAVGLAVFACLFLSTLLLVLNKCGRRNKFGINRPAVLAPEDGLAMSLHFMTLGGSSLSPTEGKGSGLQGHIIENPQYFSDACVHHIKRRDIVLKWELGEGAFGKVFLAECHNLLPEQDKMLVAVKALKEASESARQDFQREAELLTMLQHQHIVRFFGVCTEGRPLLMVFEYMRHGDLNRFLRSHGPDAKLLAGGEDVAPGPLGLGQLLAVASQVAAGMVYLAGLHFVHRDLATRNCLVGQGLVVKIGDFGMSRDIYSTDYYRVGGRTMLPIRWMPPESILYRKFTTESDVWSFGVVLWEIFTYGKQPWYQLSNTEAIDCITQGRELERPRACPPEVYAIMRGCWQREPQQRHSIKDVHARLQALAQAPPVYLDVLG

Broadly, the IC50 is the concentration that inhibits the measured activity by half. `Cn1cc(-c2[nH]c3ncc4c(c3c2-c2ccc3c(cnn3C)c2)n([C@H]2CC[C@@H](CC#N)CC2)c(=O)n4C)cn1` [C, reference compound]: the “Selectivity FLT3/JH2 V617F” value with FLT3 is on record as “* (selectivity of ≤500-fold)”. Moreover, the IC50 in series [1] is no more than 300 nM; on TRKA [3], less than 25 nM. In addition, the “Selectivity KIT/JH2 V617F” value in the series on KIT was “* (selectivity of ≤500-fold)”. Besides, the h-IntCL entry in series [2] is recorded as “‡ ‡ ‡ (h-IntCL of >1 L/h/kg)”. Also, in the series with TRKA [4], the “Selectivity TRKA/JH2 V617F” value is “* (selectivity of ≤500-fold)”.
In the case of `COc1ccc(-c2c(-c3cnn(Cc4ccncc4)c3)[nH]c3ncc4c(c23)n(C2CCCC2)c(=O)n4C)cc1` [Comparative Example D, reference compound], the half-inhibitory concentration (IC50) in series [1] was no more than 300 nM. Besides, in series [2], the h-IntCL entry is reported as “‡ ‡ ‡ (h-IntCL of >1 L/h/kg)”.
